Results taken from patent US6472348B1, “Pyridone derivatives and herbicides” (Kumiai Chemical Industry Co., Ltd., priority 1996, dated 2002).

melting point [°C]	SMILES
141 to 142	Cn1c(C(F)(F)F)ccc(-c2cc(S)c(Cl)cc2F)c1=O [Compound No. 1-42, 3-(4-chloro-2-fluoro-5-mercaptophenyl)-1-methyl-6-trifluoromethyl-2(1H)-pyridone]
161 to 163	Cn1c(C(F)(F)F)cc(Cl)c(-c2ccc(Cl)c(NS(C)(=O)=O)c2)c1=O [Compound No. 11-3, 3-(4-chloro-3-methylsulfonylaminophenyl)-4-chloro-1-methyl-6-trifluoromethyl-2(1H)-pyridone]
146 to 148	CCC(c1cc2c(-c3ccc(C(F)(F)F)n(C)c3=O)c(F)cc(Cl)c2o1)S(C)(=O)=O (stereo not drawn) [Compound No. 4-58, 3-[7-chloro-5-fluoro-2-(1-methylsulfonylpropyl)benzofuran-4-yl]-1-methyl-6-trifluoromethyl-2-(1H)-pyridone]
155 to 157	Cn1c(C(F)(F)F)ccc(-c2cc(N)c(Cl)cc2F)c1=O [Compound No. 1-59, 3-(5-amino-4-chloro-2-fluorophenyl)-1-methyl-6-trifluoromethyl-2(1H)-pyridone]
115 to 118	Cn1c(C(F)(F)F)ccc(-c2cc([N+](=O)[O-])c(F)cc2F)c1=O [Compound No. 1-100, 3-(2,4-difluoro-5-nitrophenyl)-1-methyl-6-trifluoromethyl-2(1H)-pyridone]
88 to 90	Cn1c(C(F)(F)F)cc(=O)c(-c2ccc(Cl)cc2)c1Cl [Compound No. 13-1, 3-(4-chlorophenyl)-2-chloro-1-methyl-6-trifluoromethyl-4(1H)-pyridone]
120 to 122	Cn1c(C(F)(F)F)cc(F)c(-c2ccc(Cl)cc2)c1=O [Compound No. 11-2, 3-(4-chlorophenyl)-4-fluoro-1-methyl-6-trifluoromethyl-2(1H)-pyridone]
83 to 85	Cc1ccc(-c2ccc(Cl)cc2Cl)c(=O)n1C(F)F [Compound No. 1-8, 3-(2,4-dichlorophenyl)-1-difluoromethyl-6-methyl-2(1H)-pyridone]
125 to 127	CCC(c1cc2c(-c3ccc(C(F)(F)F)n(C)c3=O)c(F)cc(Cl)c2o1)[S+](C)[O-] (stereo not drawn) [Compound No. 4-57, 3-[7-chloro-5-fluoro-2-(1-methylsulfinylpropyl)benzofuran-4-yl]-1-methyl-6-trifluoromethyl-2-(1H)-pyridone]
